The NIST ThermoML archive (doi:10.1016/j.fluid.2005.06.010)

Assay: xn = mol fraction of the nth substance listed
Conditions: Fluid (supercritical or subcritical phases), Vibrating tube method

c1ccc2ccccc2c1 [naphthalene] + O=C=O
Conditions | mass density [kg/m3]
318.11 K, 16084 kPa, x1 = 0.0093 | 785.19
318.11 K, 16667 kPa, x1 = 0.0065 | 790.99
318.11 K, 16960 kPa, x1 = 0.0093 | 796.88
318.11 K, 17000 kPa, x1 = 0.0049 | 787.78
318.11 K, 17635 kPa, x1 = 0.0065 | 803.78
318.11 K, 17984 kPa, x1 = 0.0093 | 809.07
318.11 K, 17995 kPa, x1 = 0.0049 | 800.44
318.11 K, 18460 kPa, x1 = 0.0065 | 812.58
318.11 K, 18977 kPa, x1 = 0.0049 | 811.61
318.11 K, 18989 kPa, x1 = 0.0093 | 819.91
318.11 K, 19176 kPa, x1 = 0.0065 | 820.58
318.11 K, 19789 kPa, x1 = 0.0093 | 827.92
318.11 K, 19904 kPa, x1 = 0.0065 | 827.96
318.11 K, 20045 kPa, x1 = 0.0049 | 822.71
318.11 K, 20953 kPa, x1 = 0.0093 | 838.54
318.11 K, 20963 kPa, x1 = 0.0049 | 831.61
318.11 K, 21000 kPa, x1 = 0.0065 | 838.23
318.11 K, 21926 kPa, x1 = 0.0065 | 846.14
318.11 K, 22004 kPa, x1 = 0.0049 | 840.84
318.11 K, 22031 kPa, x1 = 0.0093 | 847.64
318.11 K, 22694 kPa, x1 = 0.0093 | 852.96
318.11 K, 22962 kPa, x1 = 0.0049 | 848.85
318.11 K, 22968 kPa, x1 = 0.0065 | 854.56
318.11 K, 23517 kPa, x1 = 0.0093 | 859.24
318.11 K, 23867 kPa, x1 = 0.0065 | 861.51
318.11 K, 24017 kPa, x1 = 0.0049 | 857.07
318.11 K, 24931 kPa, x1 = 0.0093 | 869.34
318.11 K, 24993 kPa, x1 = 0.0065 | 869.51
318.13 K, 9447 kPa, x1 = 0.0038 | 467.84
318.13 K, 9511 kPa, x1 = 0.0038 | 479.86
318.13 K, 9624 kPa, x1 = 0.0038 | 500.05
318.13 K, 9723 kPa, x1 = 0.0038 | 516.4
318.13 K, 9815 kPa, x1 = 0.0038 | 530.29
318.13 K, 10026 kPa, x1 = 0.0038 | 558.2
318.13 K, 11028 kPa, x1 = 0.0038 | 638.56
318.13 K, 12034 kPa, x1 = 0.0038 | 682.9
318.13 K, 13013 kPa, x1 = 0.0038 | 712.68
318.13 K, 14016 kPa, x1 = 0.0038 | 736.26
318.13 K, 15020 kPa, x1 = 0.0038 | 755.47
318.13 K, 15435 kPa, x1 = 0.0214 | 798.75
318.13 K, 15510 kPa, x1 = 0.0214 | 799.63
318.13 K, 15611 kPa, x1 = 0.0214 | 800.92
318.13 K, 15832 kPa, x1 = 0.0214 | 803.59
318.13 K, 16002 kPa, x1 = 0.0038 | 771.53
318.13 K, 16016 kPa, x1 = 0.0214 | 805.76
318.13 K, 16531 kPa, x1 = 0.0214 | 811.8
318.13 K, 16555 kPa, x1 = 0.0204 | 810.95
318.13 K, 17029 kPa, x1 = 0.0214 | 817.29
318.13 K, 17033 kPa, x1 = 0.0038 | 786.19
318.13 K, 17049 kPa, x1 = 0.0204 | 816.49
318.13 K, 17588 kPa, x1 = 0.0204 | 822.21
318.13 K, 18000 kPa, x1 = 0.0214 | 827.3
318.13 K, 18021 kPa, x1 = 0.0038 | 798.72
318.13 K, 18067 kPa, x1 = 0.0204 | 827.01
318.13 K, 18584 kPa, x1 = 0.0204 | 832.05
318.13 K, 19038 kPa, x1 = 0.0038 | 810.39
318.13 K, 19046 kPa, x1 = 0.0214 | 837.22
318.13 K, 19123 kPa, x1 = 0.0204 | 837.04
318.13 K, 19537 kPa, x1 = 0.0204 | 840.73
318.13 K, 20002 kPa, x1 = 0.0038 | 820.43
318.13 K, 20016 kPa, x1 = 0.0214 | 845.63
318.13 K, 20055 kPa, x1 = 0.0204 | 845.16
318.13 K, 20564 kPa, x1 = 0.0204 | 849.36
318.13 K, 21012 kPa, x1 = 0.0214 | 853.76
318.13 K, 21027 kPa, x1 = 0.0038 | 830.26
318.13 K, 21058 kPa, x1 = 0.0204 | 853.31
318.13 K, 21568 kPa, x1 = 0.0204 | 857.24
318.13 K, 22015 kPa, x1 = 0.0038 | 839.08
318.13 K, 22015 kPa, x1 = 0.0214 | 861.35
318.13 K, 22022 kPa, x1 = 0.0204 | 860.61
318.13 K, 22506 kPa, x1 = 0.0204 | 864.13
318.13 K, 23014 kPa, x1 = 0.0038 | 847.4
318.13 K, 24022 kPa, x1 = 0.0038 | 855.31
318.13 K, 25018 kPa, x1 = 0.0038 | 862.63
318.14 K, 19647 kPa, x1 = 0.0237 | 845.05
318.14 K, 19720 kPa, x1 = 0.0237 | 845.71
318.14 K, 19769 kPa, x1 = 0.0237 | 846.15
318.14 K, 19815 kPa, x1 = 0.0237 | 846.6
318.14 K, 19868 kPa, x1 = 0.0237 | 847.1
318.14 K, 19940 kPa, x1 = 0.0237 | 847.81
318.14 K, 20042 kPa, x1 = 0.0237 | 848.76
318.14 K, 20202 kPa, x1 = 0.0237 | 850.16
318.14 K, 20409 kPa, x1 = 0.0237 | 851.93
318.14 K, 20762 kPa, x1 = 0.0237 | 854.79
318.14 K, 21268 kPa, x1 = 0.0237 | 858.75
318.14 K, 21759 kPa, x1 = 0.0237 | 862.5
318.14 K, 22256 kPa, x1 = 0.0237 | 866.12
318.14 K, 22769 kPa, x1 = 0.0237 | 869.73
318.14 K, 23308 kPa, x1 = 0.0237 | 873.42
318.14 K, 23561 kPa, x1 = 0.0237 | 875.25
323.03 K, 14061 kPa, x1 = 0.0198 | 735.87
323.03 K, 14281 kPa, x1 = 0.0198 | 740.33
323.03 K, 14482 kPa, x1 = 0.0198 | 744.21
323.03 K, 15014 kPa, x1 = 0.0198 | 753.86
323.03 K, 16032 kPa, x1 = 0.0198 | 770.24
323.03 K, 17031 kPa, x1 = 0.0198 | 784.26
323.03 K, 18075 kPa, x1 = 0.0198 | 797.2
323.03 K, 19028 kPa, x1 = 0.0198 | 807.85
323.03 K, 20080 kPa, x1 = 0.0198 | 818.58
323.03 K, 21050 kPa, x1 = 0.0198 | 827.65
323.03 K, 22246 kPa, x1 = 0.0198 | 838
323.03 K, 24029 kPa, x1 = 0.0198 | 851.96
323.03 K, 24780 kPa, x1 = 0.0198 | 857.36
323.06 K, 16579 kPa, x1 = 0.0276 | 788.12
323.06 K, 16788 kPa, x1 = 0.0276 | 790.83
323.06 K, 17004 kPa, x1 = 0.0276 | 793.51
323.06 K, 17203 kPa, x1 = 0.0276 | 795.99
323.06 K, 17382 kPa, x1 = 0.0276 | 798.16
323.06 K, 17590 kPa, x1 = 0.0276 | 800.59
323.06 K, 17798 kPa, x1 = 0.0276 | 803
323.06 K, 18018 kPa, x1 = 0.0276 | 805.49
323.06 K, 18224 kPa, x1 = 0.0276 | 807.76
323.06 K, 18490 kPa, x1 = 0.0276 | 810.6
323.06 K, 18694 kPa, x1 = 0.0276 | 812.78
323.06 K, 19009 kPa, x1 = 0.0276 | 816
323.06 K, 19476 kPa, x1 = 0.0276 | 820.59
323.06 K, 19995 kPa, x1 = 0.0276 | 825.42
323.06 K, 21006 kPa, x1 = 0.0276 | 834.34
323.06 K, 22002 kPa, x1 = 0.0276 | 842.55
323.06 K, 22987 kPa, x1 = 0.0276 | 850.05
323.06 K, 24002 kPa, x1 = 0.0276 | 857.32
323.06 K, 24701 kPa, x1 = 0.0276 | 862.06
323.07 K, 10356 kPa, x1 = 0.0049 | 477.23
323.07 K, 10584 kPa, x1 = 0.0049 | 504.85
323.07 K, 11014 kPa, x1 = 0.0049 | 548.62
323.07 K, 11189 kPa, x1 = 0.0093 | 594.87
323.07 K, 11528 kPa, x1 = 0.0093 | 616.57
323.07 K, 12026 kPa, x1 = 0.0093 | 642.38
323.07 K, 12054 kPa, x1 = 0.0049 | 619.66
323.07 K, 12157 kPa, x1 = 0.0144 | 663.68
323.07 K, 12308 kPa, x1 = 0.0144 | 669.44
323.07 K, 12400 kPa, x1 = 0.0144 | 672.76
323.07 K, 12573 kPa, x1 = 0.0144 | 678.74
323.07 K, 12986 kPa, x1 = 0.0144 | 691.87
323.07 K, 12997 kPa, x1 = 0.0049 | 660.38
323.07 K, 13031 kPa, x1 = 0.0093 | 680.85
323.07 K, 13495 kPa, x1 = 0.0144 | 706.09
323.07 K, 14001 kPa, x1 = 0.0093 | 708.22
323.07 K, 14001 kPa, x1 = 0.0144 | 718.59
323.07 K, 14013 kPa, x1 = 0.0049 | 692.38
323.07 K, 14975 kPa, x1 = 0.0093 | 730.03
323.07 K, 15034 kPa, x1 = 0.0049 | 717.29
323.07 K, 15051 kPa, x1 = 0.0144 | 740.61
323.07 K, 15260 kPa, x1 = 0.0235 | 764.21
323.07 K, 15541 kPa, x1 = 0.0235 | 768.75
323.07 K, 15987 kPa, x1 = 0.0049 | 736.48
323.07 K, 15999 kPa, x1 = 0.0144 | 757.24
323.07 K, 16027 kPa, x1 = 0.0235 | 776.04
323.07 K, 16061 kPa, x1 = 0.0093 | 750.23
323.07 K, 16993 kPa, x1 = 0.0093 | 765.16
323.07 K, 17000 kPa, x1 = 0.0144 | 772.5
323.07 K, 17006 kPa, x1 = 0.0049 | 753.98
323.07 K, 17013 kPa, x1 = 0.0235 | 790.56
323.07 K, 18007 kPa, x1 = 0.0235 | 801.9
323.07 K, 18016 kPa, x1 = 0.0049 | 769.15
323.07 K, 18016 kPa, x1 = 0.0144 | 786.14
323.07 K, 18045 kPa, x1 = 0.0093 | 779.85
323.07 K, 18986 kPa, x1 = 0.0049 | 782.09
323.07 K, 18996 kPa, x1 = 0.0144 | 797.91
323.07 K, 19008 kPa, x1 = 0.0235 | 812.85
323.07 K, 19015 kPa, x1 = 0.0093 | 791.95
323.07 K, 19996 kPa, x1 = 0.0093 | 803.09
323.07 K, 20004 kPa, x1 = 0.0049 | 794.32
323.07 K, 20013 kPa, x1 = 0.0144 | 809.02
323.07 K, 20026 kPa, x1 = 0.0235 | 822.87
323.07 K, 20987 kPa, x1 = 0.0049 | 805.12
323.07 K, 20996 kPa, x1 = 0.0235 | 831.78
323.07 K, 21016 kPa, x1 = 0.0093 | 813.7
323.07 K, 21017 kPa, x1 = 0.0144 | 819.02
